Data taken from ChEMBL document CHEMBL4842383 (J Med Chem, 2021).

How the values were obtained:
[1] = test system: MC-38; assay: Antitumor activity against mouse MC38 cells inoculated C57BL/6 mouse syngeneic model assessed as tumor growth inhibition at 100 mg/kg, po twice a day for 2 weeks by five days on/two days off schedule relative to control; format: functional; settings: MC-38, po, 336 h, read-out: TGI
[2] = test system: Mus musculus; assay: Immunomodulatory activity in mouse MC38 cells inoculated C57BL/6 mouse syngeneic model assessed as […] in M1 like TAM (CD86+ CD11b+ F4/80+)at 100 mg/kg, po twice a day for 2 weeks by five days on/two days off schedule relative to control; format: functional, MC-38
[3] = test system: Mus musculus; assay: Immunomodulatory activity in mouse MC38 cells inoculated C57BL/6 mouse syngeneic model assessed as decrease in M2 like TAM (CD206+ CD11b F4/80+) at 100 mg/kg, po twice a day for 2 weeks by five days on/two days off schedule relative to control; format: functional, MC-38
[4] = Half life in Sprague-Dawley rat at 5 mg/kg, iv measured up to 24 hrs by LC-MS/MS analysis; format: ADME, organism-based; settings: in vivo
[5] = Clearance in Sprague-Dawley rat at 5 mg/kg, iv measured up to 24 hrs by LC-MS/MS analysis; format: ADME, organism-based; settings: in vivo
[6] = Volume of distribution at steady state in Sprague-Dawley rat at 5 mg/kg, iv measured up to 24 hrs by LC-MS/MS analysis; format: ADME, organism-based; settings: in vivo, read-out: Vdss
[7] = Half life in Sprague-Dawley rat at 20 to 25 mg/kg, po measured up to 24 hrs by LC-MS/MS analysis; format: ADME, organism-based; settings: in vivo, dose 20-25 mg/kg
[8] = Dose normalized Cmax in Sprague-Dawley rat at 20 to 25 mg/kg, po measured up to 24 hrs by LC-MS/MS analysis; format: ADME, organism-based; settings: in vivo, dose 20-25 mg/kg
[9] = Tmax in Sprague-Dawley rat at 20 to 25 mg/kg, po measured up to 24 hrs by LC-MS/MS analysis; format: ADME, organism-based; settings: in vivo, dose 20-25 mg/kg
[10] = Oral bioavailability in Sprague-Dawley rat at 20 to 25 mg/kg measured up to 24 hrs by LC-MS/MS analysis; format: ADME, organism-based; settings: in vivo, dose 20-25 mg/kg
[11] = Toxicity in C57BL/6 mouse inoculated with mouse MC38 cells assessed as body weight loss at 100 mg/kg, po twice a day for 2 weeks by five days on/two days off schedule relative to control; format: organism-based, MC-38; settings: in vivo, 336 h

Structure (SMILES): CN(C)c1ccc2c(Oc3ccc(NC(=O)NCc4ccc(C(F)(F)F)nc4)cc3)ncnc2c1.CS(=O)(=O)O
- inhibition in vivo at 100 mg/kg [1]: 59%
- fold change (FC) [2]: 3
- fold change (FC) [3]: 2.5
- half-life [4]: 2.4 h
- clearance [5]: 8.9 mL/min/kg
- Vd [6]: 1 L/kg
- half-life [7]: 11.6 h
- Cmax/dose [8]: 68 ng/mL
- Tmax [9]: 0.5 h
- bioavailability [10]: 34.9%
- Activity [11]: Non-Toxic
